Reference: article PMC6132687, “Stem cells are the most sensitive screening tool to identify toxicity of GATA4-targeted novel small-molecule compounds” (Archives of Toxicology, 2018)

Columns and labels:
[1] = test system: GATA4–NKX2-5 transcriptional synergy; assay: Luciferase reporter assay of GATA4–NKX2-5 synergistic gene activation in COS-1 cells; format: cell-based, African green monkey; details: 24 h treatment, normalized to DMSO
Method: COS-1 cells were used to investigate the compound effects on GATA4–NKX2-5 synergistic gene activation using a luciferase reporter assay (Kinnunen et al. [2015]). Toxicity profiling was carried out in eight cell types: the H9c2 myoblast cell line, NRVCs, CFs, mESCs, MEFs, mESC derivatives from day 5 embryoid bodies (D5EBs), hiPSCs and hiPSC-CMs. All cell cultures were maintained at 37 °C in a humidified atmosphere of 5% carbon dioxide (CO2) and the regular growth medium was used for compound exposures. Cell culture methods and cardiomyocyte differentiation from human pluripotent stem cells are described in Supplementary Information.
The empty expression plasmid MT2 (pMT2) and mouse Gata4 expressing pMT2-Gata4 plasmids were gifts from D. B. Wilson (Department of Pediatrics, St. Louis Children’s Hospital) (Arceci et al. [1993]). The luciferase reporter plasmid pGL3-3xHA containing three Nkx2-5 high-affinity binding sites has been described previously (Kinnunen et al. [2015]). To create mouse Nkx2-5 expressing pMT2-Nkx2-5, the cDNA was cloned from pFLCI-Nkx2-5 (clone D330001C20, Imagenes), which was a kind gift from R. Kerkelä (University of Oulu, Finland), with primers containing the EcoRI restriction site (forward: 5′-[…]-3′ and reverse 5′-[…]-3′) and ligated to pMT2 EcoRI site. The correct clone was identified by digestion with specific restriction enzymes and the sequence was verified by DNA sequencing (DNA Sequencing and Genomics Laboratory, Institute of Biotechnology, University of Helsinki, Finland).
COS-1 cells grown on 96-well plates were transfected with the luciferase reporter plasmid pGL3-3xHA (100 ng/well) and equal amounts of expression vectors pMT2-Gata4 and pMT2-Nkx2-5 (total of 50 ng/well) using Fugene 6 (Promega) at a reagent:DNA ratio of 3:1. Cells transfected with either pMT2, pMT2-Gata4 or pMT2-Nkx2-5 were used to confirm synergistic transactivation of the reporter gene in all experiments. After 6 h of transfection, the cells were treated with compounds or vehicle (0.1% dimethyl sulfoxide, DMSO) and the luminescence was measured 24 h later using Neolite Reporter Gene Assay System (PerkinElmer, Turku, Finland) according to manufacturer’s instructions and Victor2 plate reader (PerkinElmer, Turku, Finland). Each compound was tested in three technical replicates in at least two independent experiments.
A luciferase reporter assay with an artificial promoter containing three high-affinity binding sites for NKX2-5 was used to evaluate the effects of the compounds on GATA4–NKX2-5 transcriptional synergy (Kinnunen et al. [2015]). We have previously shown that while GATA4 alone induces only minimal activation of this promoter, it strongly potentiates NKX2-5-mediated transactivation (Kinnunen et al. [2015]; Välimäki et al. [2017]).

hiPSCs = assay: MTT assay in hiPSCs; format: cell-based, human; details: for IC50: Homo sapiens, 24-h exposure, read-out: IC50 (hiPSC viability)
Method: The cells were exposed to the test compounds for 24 h and cytotoxicity was quantified with MTT and LDH assays as described previously (Talman et al. [2011]). For the determination of cell membrane integrity, 50 µl of medium from each well was transferred onto a new 96-well plate followed by addition of 50 µl of substrate solution containing 1.3 mM β-nicotinamide adenine dinucleotide, 660 µM iodonitrotetrazolium, 54 mM L(+)-lactic acid, 280 µM phenazine methosulphate and 0.2 M Tris–HCl (pH 8.0). After a 30-min incubation, the reaction was stopped by adding 50 µl of 1 M acetic acid to each well and absorbance was measured at 490 nm using Victor2 plate reader (PerkinElmer, Turku, Finland). Spontaneous LDH release was measured from untreated cells, maximal LDH release from cells lysed with 0.9% Triton X-100 and background absorbance was measured from wells without cells. After background extraction, cytotoxicity was calculated as follows: cytotoxicity (%) = [(sample − spontaneous LDH release)/(maximal LDH release − spontaneous LDH release)] × 100. For quantification of metabolic activity, 3-(4,5-dimethylthiazol-2-yl)-2,5-diphenyltetrazolium bromide (MTT) was added to the cells at a final concentration of 0.5 mg/ml followed by 2 h incubation in cell culture conditions. The medium was then aspirated and formazan crystals were solubilized in DMSO. Absorbance was measured at 550 nm and absorbance at 650 nm was subtracted as background. […]
Human pluripotent stem cells (hiPSCs): The iPS(IMR90)-4 line (Yu et al. 2007) was purchased from WiCell (Madison, Wisconsin, USA). The cells were cultured in Essential 8 ™ medium (E8) on 6-well plates coated with Matrigel® (1:50) and passaged 1:15 approximately every four days. The cells were dissociated using Versene®, resuspended in E8 containing 10 µM ROCK inhibitor (Y-27632) and seeded at 10,000 cells/well (cytotoxicity assays) or 5,000 cells/well (high-content imaging) in Matrigel®-coated 96-well plates. The cells were incubated overnight in standard conditions prior to compound addition. […]
1640 without glucose with B-27 supplement in order to purify cardiomyocytes. From day 15 onwards the cells were maintained in RPMI 1640 supplemented with B-27 (RB+ins). Beating hiPSC-CMs were dissociated between days 15 and 22 by incubating them in cell dissociation solution containing 40% enzyme-free cell dissociation buffer, 40% RPMI 1640 and 20% trypsin-EDTA (final trypsin concentration 0.01%) for 7–8 min, whereafter the cells were collected and trypsin was inactivated in RB+ins supplemented with 10% FBS. After centrifugation the cells were suspended in RB+ins with 10% FBS containing 10 µM ROCK inhibitor and seeded at 15,000 cells/well (cytotoxicity assays) or 20,000 cells/well (high content analysis) in gelatin-coated 96-well plates. The cells were let to attach for 2 days at 37 °C in standard conditions, whereafter the compounds were added in RB+ins. In general, the differentiation yielded an almost pure (>95%) cardiomyocyte culture.
Syntheses and characterization of compounds
Materials and general procedures. All reagents were acquired from Sigma-Aldrich (Schnelldorf, Germany) and Enamine (Kiev, Ukraine), and were used without further purification. All reactions in anhydrous solvents were conducted in oven-dried glassware under anhydrous argon. Thin-layer chromatography (TLC) was performed using Silica Gel 60 F254 (Merck) and Silica Gel 60 NH2 F254s aluminium sheets (Merck), visualized by UV illumination and stained with ninhydrin in EtOH (1.5% w/v). Microwave reactions were performed with a Biotage Initiator+ Robot Eight microwave (Uppsala, Sweden). Column chromatography was performed with an automated high performance flash chromatography Biotage Sp4-system or with a Isolera Spektra One-system (Uppsala, Sweden) using a 0.1-mm path length flow cell UV-detector/recorder module (fixed wavelength 254 nm) for the […] or a variable UV-VIS (200-800 nm) photodiode array detector for the Isolera Spektra One- […]

Structure (SMILES) | effect on GATA4- and NKX2-5-induced gene activation (luciferase reporter activity) [1] | IC50 (hiPSCs) | reduction in cell viability (hiPSCs; hiPSCs, 24 h, at ≥ 3 µM) | reduction in viability (hiPSCs; hiPSCs, 24 h, 30 µM) | sensitivity of cell type to compound (viability) (hiPSCs; hiPSCs, 24 h)
CCN(CC)c1ccc(NC(=O)c2c(-c3ccccc3)noc2C)cc1 [3i-1000] | inhibitory effect | 1460 nM | 93–94% | – | –
CCN(CC)c1ccc(NC(=O)c2c(C)noc2-c2cc(C)on2)cc1 [3i-1047] | only a weak effect | – | – | 38–45% | –
CCC(=O)N(Cc1ccc(N(CC)CC)cc1)c1c(-c2ccccc2)noc1C [3i-1120] | inhibitory effect | 600 nM | – | – | sensitive
CCN(CC)c1ccc(NC(=O)c2cc(C)oc2-c2ccccc2)cc1 [3i-1148] | inhibitory effect | 300 nM | – | – | sensitive
COc1ccc(-c2cc(N)nn2C(=O)c2c(-c3ccccc3)noc2C)cc1 [3i-1229] | only a weak effect | 2070 nM | – | – | sensitive
